This passage reports mutagenic call results from PubChem BioAssay AID1259407 (Chemical Carcinogenesis Research Information System (CCRIS), 2018).

The data set concerns CCRIS mutagenicity, Ames/micronucleus/aberration tests. Description: CCRIS mutagenicity studies.
Setting [1] is: Test System: AMES SALMONELLA TYPHIMURIUM, Strain/Indicator: TA98, Metabolic Activation: NONE, Method: STANDARD PLATE.
The mark [2] stands for this setting: Test System: AMES SALMONELLA TYPHIMURIUM, Strain/Indicator: TA98, Metabolic Activation: RAT, LIVER, S-9, AROCLOR 1254, Method: STANDARD PLATE.
[3] abbreviates: Test System: AMES SALMONELLA TYPHIMURIUM, Strain/Indicator: TA100, Metabolic Activation: NONE, Method: STANDARD PLATE.
[4] abbreviates: Test System: AMES SALMONELLA TYPHIMURIUM, Strain/Indicator: TA100, Metabolic Activation: RAT, LIVER, S-9, AROCLOR 1254, Method: STANDARD PLATE.
Where [5] appears, read: Test System: AMES SALMONELLA TYPHIMURIUM, Strain/Indicator: TA1535, Metabolic Activation: NONE, Method: STANDARD PLATE.
Setting [6] is: Test System: AMES SALMONELLA TYPHIMURIUM, Strain/Indicator: TA1535, Metabolic Activation: RAT, LIVER, S-9, AROCLOR 1254, Method: STANDARD PLATE.
The mark [7] stands for this setting: Test System: AMES SALMONELLA TYPHIMURIUM, Strain/Indicator: TA1537, Metabolic Activation: NONE, Method: STANDARD PLATE.
[8] abbreviates: Test System: AMES SALMONELLA TYPHIMURIUM, Strain/Indicator: TA1537, Metabolic Activation: RAT, LIVER, S-9, AROCLOR 1254, Method: STANDARD PLATE.
Where [9] appears, read: Test System: AMES SALMONELLA TYPHIMURIUM, Strain/Indicator: TA1538, Metabolic Activation: NONE, Method: STANDARD PLATE.
The mark [10] stands for this setting: Test System: AMES SALMONELLA TYPHIMURIUM, Strain/Indicator: TA1538, Metabolic Activation: RAT, LIVER, S-9, AROCLOR 1254, Method: STANDARD PLATE.

Structures are written as SMILES. Active and inactive are the calls of the source. No rule for the calls is given here.

In the case of `O=S(O)S(=O)(=O)O`, the mutagenic call by setting is: (End Point: In vitro chromosomal aberration, Test System: Human lymphocytes, Metabolic Activation: None) “active; positive (structural changes)”; (End Point: In vitro micronucleus, Test System: Human lymphocytes, Metabolic Activation: None) “active; positive”; (End Point: In vivo micronucleus, Test System: Bone marrow cells, Species: Rat, Strain/Sex: Rattus norvegicus var. albino / Male, female, Route: Intraperitoneal) “active; positive (structural changes)”; (Test System: AMES SALMONELLA TYPHIMURIUM, Strain/Indicator: TA97, Metabolic Activation: NONE, Method: PREINCUBATION) “inactive; negative”; (Test System: AMES SALMONELLA TYPHIMURIUM, Strain/Indicator: TA97, Metabolic Activation: RAT, LIVER, S-9, AROCLOR 1254, Method: PREINCUBATION) “inactive; negative”; under setting [1], “inactive; negative”. In addition, the mutagenic call is “inactive; negative” under setting [2]; “inactive; negative” under setting [3]; “inactive; negative” under setting [4]; “inactive; negative” (Test System: AMES SALMONELLA TYPHIMURIUM, Strain/Indicator: TA102, Metabolic Activation: NONE, Method: PREINCUBATION); “inactive; negative” (Test System: AMES SALMONELLA TYPHIMURIUM, Strain/Indicator: TA102, Metabolic Activation: RAT, LIVER, S-9, AROCLOR 1254, Method: PREINCUBATION); “inactive; negative” under setting [5]. Moreover, the mutagenic call by setting is: under setting [6], “inactive; negative”; under setting [7], “inactive; negative”; under setting [8], “inactive; negative”; under setting [9], “inactive; negative”; under setting [10], “inactive; negative”; (Test System: E. COLI, Strain/Indicator: WP2, Metabolic Activation: NONE, Method: STANDARD PLATE) “inactive; negative”. In addition, the mutagenic call (Test System: E. COLI, Strain/Indicator: WP2, Metabolic Activation: RAT, LIVER, S-9, AROCLOR 1254, Method: STANDARD PLATE) is “inactive; negative”.
Turning to `CCCCNC(=O)NS(=O)(=O)c1ccc(C)cc1`, the mutagenic call is, setting by setting: (End Point: IN VITRO CHROMOSOMAL ABERRATIONS, Test System: CHO-LB CELLS, Metabolic Activation: NONE) “inactive; negative”; (End Point: IN VITRO CHROMOSOMAL ABERRATIONS, Test System: CHO-LB CELLS, Metabolic Activation: RAT, LIVER, S-9, AROCLOR 1254) “inactive; negative”.
For the compound `CN(C)CCNC(=O)c1cccc2nc3ccccc3nc12`, the mutagenic call under setting [7] is “active; positive”.
As for `Cc1cc([N+](=O)[O-])cc2ccccc12`, where the note is “Test System: AMES SALMONELLA TYPHIMURIUM, Strain/Indicator: TA98, Metabolic Activation: NONE, Method: PREINCUBATION”, the mutagenic call is “active; positive”.
Turning to `ClC1=C(Cl)[C@]2(Cl)[C@@H]3[C@@H]4C[C@@H]([C@H]5O[C@@H]45)[C@@H]3[C@@]1(Cl)C2(Cl)Cl`, the mutagenic call by setting is: (End Point: IN VITRO CHROMOSOMAL ABERRATIONS, Test System: CHINESE HAMSTER OVARY CELLS, Metabolic Activation: NONE) “inactive; negative”; (End Point: IN VITRO CHROMOSOMAL ABERRATIONS, Test System: CHINESE HAMSTER OVARY CELLS, Metabolic Activation: RAT, LIVER, S-9, AROCLOR 1254) “inactive; negative; precipitation occurred at all doses”; (Test System: AMES SALMONELLA TYPHIMURIUM, Strain/Indicator: TA97, Metabolic Activation: NONE, Method: STANDARD PLATE) “inactive; negative”; (Test System: AMES SALMONELLA TYPHIMURIUM, Strain/Indicator: TA97, Metabolic Activation: RAT, LIVER, S-9, AROCLOR 1254, Method: STANDARD PLATE) “inactive; negative”; under setting [1], “inactive; negative”; under setting [2], “inactive; negative”. Further, the mutagenic call under setting [3] was “inactive; negative”; the mutagenic call under setting [4] was “inactive; negative”; the mutagenic call (Test System: AMES SALMONELLA TYPHIMURIUM, Strain/Indicator: TA102, Metabolic Activation: NONE, Method: STANDARD PLATE) is “inactive; negative”; the mutagenic call (Test System: AMES SALMONELLA TYPHIMURIUM, Strain/Indicator: TA102, Metabolic Activation: RAT, LIVER, S-9, AROCLOR 1254, Method: STANDARD PLATE) is “inactive; negative”; the mutagenic call (Test System: CHINESE HAMSTER V-79, Strain/Indicator: V-79/OUABAIN, Metabolic Activation: NONE, Method: STANDARD PLATE) is “active; positive”; the mutagenic call (Test System: MOUSE LYMPHOMA, Strain/Indicator: L5178Y (TK+/TK-), Metabolic Activation: NONE, Method: SUSPENSION/PLATE) was “active; positive”.
As to `COC1=C[C@@H]2[C@@H]3Cc4ccc(OC)c(O)c4[C@]2(CCN3C)CC1=O`, the mutagenic call is, setting by setting: (Test System: AMES SALMONELLA TYPHIMURIUM, Strain/Indicator: TA98, Metabolic Activation: RAT, LIVER, S-9, PHENOBARBITAL AND BETA-NAPHTHOFLAVONE, Method: PREINCUBATION) “inactive; negative”; (Test System: AMES SALMONELLA TYPHIMURIUM, Strain/Indicator: TA100, Metabolic Activation: RAT, LIVER, S-9, PHENOBARBITAL AND BETA-NAPHTHOFLAVONE, Method: PREINCUBATION) “inactive; negative”.
On to `C/C=N/O`, for which the mutagenic call is “inactive; negative” (Test System: AMES SALMONELLA TYPHIMURIUM, Strain/Indicator: TA98, Metabolic Activation: HAMSTER, LIVER, S-9, AROCLOR 1254, Method: STANDARD PLATE); “inactive; negative” under setting [1]; “inactive; negative” under setting [2]; “inactive; negative” (Test System: AMES SALMONELLA TYPHIMURIUM, Strain/Indicator: TA100, Metabolic Activation: HAMSTER, LIVER, S-9, AROCLOR 1254, Method: STANDARD PLATE); “inactive; negative” under setting [3]; “inactive; negative” under setting [4]. Also, the mutagenic call (Test System: AMES SALMONELLA TYPHIMURIUM, Strain/Indicator: TA102, Metabolic Activation: RAT, LIVER, S-9, PHENOBARBITAL AND 5,6-BENZOFLAVONE, Method: STANDARD PLATE) was “inactive; negative”; the mutagenic call (Test System: AMES SALMONELLA TYPHIMURIUM, Strain/Indicator: TA1535, Metabolic Activation: HAMSTER, LIVER, S-9, AROCLOR 1254, Method: STANDARD PLATE) is “inactive; negative”; the mutagenic call under setting [5] was “inactive; negative”; the mutagenic call under setting [6] was “inactive; negative”; the mutagenic call (Test System: AMES SALMONELLA TYPHIMURIUM, Strain/Indicator: TA1537, Metabolic Activation: HAMSTER, LIVER, S-9, AROCLOR 1254, Method: STANDARD PLATE) was “inactive; negative”; the mutagenic call under setting [7] was “inactive; negative”. The mutagenic call by setting is: under setting [8], “inactive; negative”; (Test System: AMES SALMONELLA TYPHIMURIUM, Strain/Indicator: TA1538, Metabolic Activation: HAMSTER, LIVER, S-9, AROCLOR 1254, Method: STANDARD PLATE) “inactive; negative”; under setting [9], “inactive; negative”; under setting [10], “inactive; negative”; (Test System: AMES SALMONELLA TYPHIMURIUM, Strain/Indicator: TA2638, Metabolic Activation: RAT, LIVER, S-9, PHENOBARBITAL AND 5,6-BENZOFLAVONE, Method: STANDARD PLATE) “inactive; negative”; (Test System: E. COLI, Strain/Indicator: WP2 (PKM101), Metabolic Activation: RAT, LIVER, S-9, PHENOBARBITAL AND 5,6-BENZOFLAVONE, Method: STANDARD PLATE) “inactive; negative”. In addition, the mutagenic call is “inactive; negative” (Test System: E. COLI, Strain/Indicator: WP2 UVRA (PKM101), Metabolic Activation: RAT, LIVER, S-9, PHENOBARBITAL AND 5,6-BENZOFLAVONE, Method: STANDARD PLATE); “active; positive. reevaluation of results: inconclusive” (Test System: MOUSE LYMPHOMA, Strain/Indicator: L5178Y (TK+/TK-), Metabolic Activation: RAT, LIVER, S-9, AROCLOR 1254, Method: SUSPENSION/PLATE); “inactive; negative” (Test System: Mouse lymphoma, Strain/Indicator: L5178Y (tk+tk-), Metabolic Activation: None, Method: Suspension/plate); “active; inconclusive (previously evaluated positive)” (Test System: Mouse lymphoma, Strain/Indicator: L5178Y (tk+tk-), Metabolic Activation: Rat, Liver, S-9, Aroclor 1254, Method: Suspension/plate).
